Measurements: US9738634B2, “Heterocyclic amide compound and herbicide” (SYNGENTA PARTICIPATIONS AG, priority 2013, dated 2017)

Key:
Format in all cases: in vivo
Details in all cases: treatment dosage 320 g/ha
oval-leafed pondweed [1] = assay: Test Example 2: weedkilling efficacy, growth period weed treatment in the submerged state; C: oval-leafed pondweed
How it was run: (§1)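 Weeds treated at the 1-2 leaf stage by application of diluted emulsion onto floodwater (4 cm depth, alluvial soil) at specified g/ha. Grown in greenhouse at 25 to 30° C; herbicidal effect rated three weeks after treatment.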

fig-leafed goosefoot [2] = assay: Test Example 3: weedkilling efficacy through soil treatment; M: fig-leafed goosefoot
How it was run: (§2)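 Crop and weed responses were judged three weeks after a uniform surface spray of the water-diluted emulsion at the given g/ha rate. Seeds sat beneath about 1.5 cm of sterilized diluvial soil, and boxes stood in a greenhouse at 25 to 30° C.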

common wind-grass [3] = assay: Test Example 3: weedkilling efficacy through soil treatment; J: common wind-grass
How it was run: as §2

redroot pigweed [4] = assay: Test Example 4: weedkilling efficacy by foliar treatment; L: redroot pigweed
How it was run: (§3)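 Seeds are spot-sown into sterilized diluvial soil and covered with about 1.5 cm of soil. After 14 days' greenhouse growth at 25 to 30° C, plants are sprayed on stems and leaves with diluted emulsion at the stated g/ha rate, then scored at 3 weeks.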

black-grass [5] = assay: Test Example 3: weedkilling efficacy through soil treatment; H: black-grass
How it was run: as §2

catchweed = assay: Test Example 4: weedkilling efficacy by foliar treatment; O: catchweed
How it was run: as §3

rapeseed [6] = assay: Test Example 4: foliar treatment, effect on crop; g: rapeseed
Protocol: (§4) Testing of Weedkilling Efficacy by Foliar Treatment
(§5) Sterilized diluvial soil was introduced into 21 cm long, 13 cm wide, 7 cm deep plastic boxes, and seeds of crabgrass, green foxtail, barnyard grass, wild oat, black-grass, Italian ryegrass, common wind-grass, Indian mallow, redroot pigweed, fig-leafed goosefoot, chickweed, catchweed, birds-eye speedwell, corn, soybean, rice, wheat, beet and rapeseed were each spot-sown, and covered with about 1.5 cm of soil, then the plants were grown in a greenhouse at 25 to 30° C.
(§6) After they had grown for 14 days, emulsions of compounds of the present invention prepared according to compounding example 2 were diluted with water to give the specified dosages, and applied uniformly onto the stem and leaf parts with a small sprayer. 3 weeks after the pesticide treatment the effect on each type of plant was investigated on the basis of the assessment criteria of test example 1.
(§7) A: barnyard grass, B: bulrush, C: oval-leafed pondweed, D: crabgrass, E: green foxtail, F: barnyard grass, G: wild oat, H: black-grass, I: Italian ryegrass, J: common wind-grass, K: Indian mallow, L: redroot pigweed, M: fig-leafed goosefoot, N: chickweed, O: catchweed, p: birds-eye speedwell, a: transplanted rice, b: directly sown rice, c: corn, d: soybean, e: wheat, f: beet, g: rapeseed
(§8) Further, pesticide dosage (g/ha) indicates the concentration regulated such that treatment was with only the stated number of grams (g), when calculated per hectare (ha).

barnyard grass [7] = assay: Test Example 2: weedkilling efficacy, growth period weed treatment in the submerged state; A: barnyard grass
How it was run: as §1

wild oat [8] = assay: Test Example 4: weedkilling efficacy by foliar treatment; G: wild oat
How it was run: as §3

bulrush [9] = assay: Test Example 1: weedkilling efficacy, preemergent weed treatment in the submerged state; B: bulrush
How it was run: (§9)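 Pre-emergence application onto floodwater (4 cm, alluvial soil) on the day of sowing, dose expressed as g/ha from diluted emulsion formulation. Weeds sown with 2.5-leaf transplanted rice as crop; plants held at 25–30 °C in greenhouse and scored against assessment criteria after 3 weeks.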

black-grass [10] = assay: Test Example 4: weedkilling efficacy by foliar treatment; H: black-grass
How it was run: as §3

crabgrass [11] = assay: Test Example 4: weedkilling efficacy by foliar treatment; D: crabgrass
How it was run: as §3

barnyard grass [12] = assay: Test Example 3: weedkilling efficacy through soil treatment; F: barnyard grass
How it was run: as §2

green foxtail [13] = assay: Test Example 3: weedkilling efficacy through soil treatment; E: green foxtail
How it was run: as §2

common wind-grass [14] = assay: Test Example 4: weedkilling efficacy by foliar treatment; J: common wind-grass
Protocol: as §4, §5, §6, §7, §8

fig-leafed goosefoot [15] = assay: Test Example 4: weedkilling efficacy by foliar treatment; M: fig-leafed goosefoot
How it was run: as §3

beet = assay: Test Example 4: foliar treatment, effect on crop; f: beet
How it was run: as §3

directly sown rice [16] = assay: Test Example 3: soil treatment, effect on crop; b: directly sown rice
How it was run: as §2

wheat [17] = assay: Test Example 4: foliar treatment, effect on crop; e: wheat
How it was run: as §3

oval-leafed pondweed [18] = assay: Test Example 1: weedkilling efficacy, preemergent weed treatment in the submerged state; C: oval-leafed pondweed
How it was run: as §9

wild oat [19] = assay: Test Example 3: weedkilling efficacy through soil treatment; G: wild oat
How it was run: as §2

corn [20] = assay: Test Example 3: soil treatment, effect on crop; c: corn
How it was run: as §2

directly sown rice [21] = assay: Test Example 4: foliar treatment, effect on crop; b: directly sown rice
How it was run: as §3

redroot pigweed [22] = assay: Test Example 3: weedkilling efficacy through soil treatment; L: redroot pigweed
How it was run: as §2

chickweed [23] = assay: Test Example 3: weedkilling efficacy through soil treatment; N: chickweed
How it was run: as §2

barnyard grass [24] = assay: Test Example 4: weedkilling efficacy by foliar treatment; F: barnyard grass
Protocol: as §4, §5, §6, §7, §8

bulrush [25] = assay: Test Example 2: weedkilling efficacy, growth period weed treatment in the submerged state; B: bulrush
How it was run: as §1

Indian mallow [26] = assay: Test Example 3: weedkilling efficacy through soil treatment; K: Indian mallow
How it was run: as §2

rapeseed [27] = assay: Test Example 3: soil treatment, effect on crop; g: rapeseed
How it was run: as §2

barnyard grass [28] = assay: Test Example 1: weedkilling efficacy, preemergent weed treatment in the submerged state; A: barnyard grass
How it was run: as §9

soybean [29] = assay: Test Example 4: foliar treatment, effect on crop; d: soybean
How it was run: as §3

soybean [30] = assay: Test Example 3: soil treatment, effect on crop; d: soybean
How it was run: as §2

wheat [31] = assay: Test Example 3: soil treatment, effect on crop; e: wheat
How it was run: as §2

chickweed [32] = assay: Test Example 4: weedkilling efficacy by foliar treatment; N: chickweed
How it was run: as §3

crabgrass [33] = assay: Test Example 3: weedkilling efficacy through soil treatment; D: crabgrass
How it was run: as §2

green foxtail [34] = assay: Test Example 4: weedkilling efficacy by foliar treatment; E: green foxtail
How it was run: as §3

Italian ryegrass [35] = assay: Test Example 3: weedkilling efficacy through soil treatment; I: Italian ryegrass
How it was run: as §2

corn [36] = assay: Test Example 4: foliar treatment, effect on crop; c: corn
How it was run: as §3

Italian ryegrass [37] = assay: Test Example 4: weedkilling efficacy by foliar treatment; I: Italian ryegrass
How it was run: as §3

Indian mallow [38] = assay: Test Example 4: weedkilling efficacy by foliar treatment; K: Indian mallow
How it was run: as §3

transplanted rice = assay: Test Example 1: preemergent weed treatment in the submerged state, effect on crop; a: transplanted rice
How it was run: as §9

## CC1=C(c2cccnc2F)C(=O)N(C(C)(C)C(=O)Nc2cc(C(F)(F)F)cc(Cl)n2)CO1 [B-2-16]
oval-leafed pondweed [1]
  C (oval-leafed pondweed) weedkilling efficacy grade: 5 (weed kill ratio 90% or more, (practically complete withering))
fig-leafed goosefoot [2]
  M (fig-leafed goosefoot) weedkilling efficacy grade: 4 (weed kill ratio 70% or more, less than 90%)
Common wind-grass [3]
  J (common wind-grass) weedkilling efficacy grade: 5 (weed kill ratio 90% or more, (practically complete withering))
Redroot pigweed [4]
  L (redroot pigweed) weedkilling efficacy grade: 4 (weed kill ratio 70% or more, less than 90%)
black-grass [5]
  H (black-grass) weedkilling efficacy grade: 5 (weed kill ratio 90% or more, (practically complete withering))
catchweed
  O (catchweed) weedkilling efficacy grade: 4 (weed kill ratio 70% or more, less than 90%)
Rapeseed [6]
  g (rapeseed) effect on crop grade: 4 (weed kill ratio 70% or more, less than 90%)
Barnyard grass [7]
  A (barnyard grass) weedkilling efficacy grade: 5 (weed kill ratio 90% or more, (practically complete withering))
Wild oat [8]
  G (wild oat) weedkilling efficacy grade: 5 (weed kill ratio 90% or more, (practically complete withering))
Bulrush [9]
  B (bulrush) weedkilling efficacy grade: 5 (weed kill ratio 90% or more, (practically complete withering))
black-grass [10]
  H (black-grass) weedkilling efficacy grade: 5 (weed kill ratio 90% or more, (practically complete withering))
Crabgrass [11]
  D (crabgrass) weedkilling efficacy grade: 5 (weed kill ratio 90% or more, (practically complete withering))
Barnyard grass [12]
  F (barnyard grass) weedkilling efficacy grade: 5 (weed kill ratio 90% or more, (practically complete withering))
Green foxtail [13]
  E (green foxtail) weedkilling efficacy grade: 5 (weed kill ratio 90% or more, (practically complete withering))
Common wind-grass [14]
  J (common wind-grass) weedkilling efficacy grade: 5 (weed kill ratio 90% or more, (practically complete withering))
fig-leafed goosefoot [15]
  M (fig-leafed goosefoot) weedkilling efficacy grade: 5 (weed kill ratio 90% or more, (practically complete withering))
beet
  f (beet) effect on crop grade: 4 (weed kill ratio 70% or more, less than 90%)
Directly sown rice [16]
  b (directly sown rice) effect on crop grade: 5 (weed kill ratio 90% or more, (practically complete withering))
Wheat [17]
  e (wheat) effect on crop grade: 3 (weed kill ratio 40% or more, less than 70%)
oval-leafed pondweed [18]
  C (oval-leafed pondweed) weedkilling efficacy grade: 5 (weed kill ratio 90% or more, (practically complete withering))
Wild oat [19]
  G (wild oat) weedkilling efficacy grade: 5 (weed kill ratio 90% or more, (practically complete withering))
Corn [20]
  c (corn) effect on crop grade: 1 (weed kill ratio 5% or more, less than 20%)
Directly sown rice [21]
  b (directly sown rice) effect on crop grade: 5 (weed kill ratio 90% or more, (practically complete withering))
Redroot pigweed [22]
  L (redroot pigweed) weedkilling efficacy grade: 0 (weed kill ratio 5% or less (practically no effect))
Chickweed [23]
  N (chickweed) weedkilling efficacy grade: 4 (weed kill ratio 70% or more, less than 90%)
Barnyard grass [24]
  F (barnyard grass) weedkilling efficacy grade: 5 (weed kill ratio 90% or more, (practically complete withering))
Bulrush [25]
  B (bulrush) weedkilling efficacy grade: 5 (weed kill ratio 90% or more, (practically complete withering))
Indian mallow [26]
  K (Indian mallow) weedkilling efficacy grade: 2 (weed kill ratio 20% or more, less than 40%)
Rapeseed [27]
  g (rapeseed) effect on crop grade: 3 (weed kill ratio 40% or more, less than 70%)
Barnyard grass [28]
  A (barnyard grass) weedkilling efficacy grade: 5 (weed kill ratio 90% or more, (practically complete withering))
Soybean [29]
  d (soybean) effect on crop grade: 4 (weed kill ratio 70% or more, less than 90%)
Soybean [30]
  d (soybean) effect on crop grade: 1 (weed kill ratio 5% or more, less than 20%)
Wheat [31]
  e (wheat) effect on crop grade: 1 (weed kill ratio 5% or more, less than 20%)
Chickweed [32]
  N (chickweed) weedkilling efficacy grade: 4 (weed kill ratio 70% or more, less than 90%)
Crabgrass [33]
  D (crabgrass) weedkilling efficacy grade: 5 (weed kill ratio 90% or more, (practically complete withering))
Green foxtail [34]
  E (green foxtail) weedkilling efficacy grade: 5 (weed kill ratio 90% or more, (practically complete withering))
Italian ryegrass [35]
  I (Italian ryegrass) weedkilling efficacy grade: 5 (weed kill ratio 90% or more, (practically complete withering))
Corn [36]
  c (corn) effect on crop grade: 4 (weed kill ratio 70% or more, less than 90%)
Italian ryegrass [37]
  I (Italian ryegrass) weedkilling efficacy grade: 5 (weed kill ratio 90% or more, (practically complete withering))
Indian mallow [38]
  K (Indian mallow) weedkilling efficacy grade: 5 (weed kill ratio 90% or more, (practically complete withering))
Transplanted rice
  a (transplanted rice) effect on crop grade: 4 (weed kill ratio 70% or more, less than 90%)
